The target of assay [1] is T1, OR51E1 olfactory receptor (Homo sapiens, UniProt Q8TCB6).
T1 construct: expressed in transfected cells
T1 sequence (Q8TCB6 1-318): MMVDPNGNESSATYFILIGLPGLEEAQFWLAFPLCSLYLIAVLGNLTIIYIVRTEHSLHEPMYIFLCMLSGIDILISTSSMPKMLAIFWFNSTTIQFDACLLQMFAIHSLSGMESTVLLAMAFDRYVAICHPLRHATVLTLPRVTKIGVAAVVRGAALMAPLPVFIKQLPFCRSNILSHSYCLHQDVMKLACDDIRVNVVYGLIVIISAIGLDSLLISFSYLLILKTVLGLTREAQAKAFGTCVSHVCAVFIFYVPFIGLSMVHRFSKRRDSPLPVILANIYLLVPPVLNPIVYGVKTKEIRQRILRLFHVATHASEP
Description: Butyric acid olfactory receptor antagonist cell-based dose-response vs butyric acid EC80. To be noted: for Emax: read-out: Inhibition (%).

Assay [2] relates to geonol receptors Olfr339, Olfr1487, Olfr1A1, OR11A1, Olfr96. Briefly: Antagonists of geonol receptors (Example 11). Type of assay: cell-based, mouse and human. Set-up: Inhibition(%): concentration or dose not given beside the values. To be noted: Table 18.

pIC50: −log10 of the molar value. Counter-ions that a name gives are not always drawn. Like-named read-outs stand apart in the source and are kept apart here.

As usually defined, the pIC50 is the IC50 on a negative log10 scale, so that one unit is a factor of ten. Regarding `CC(=O)OC(C)C1CC(C)C23CCC(CC12)C3` (stereo not drawn), in assay [1] (Table 21), the pIC50 was 4.01 and the “Inhibition(%)” value stood at 23%.

For the molecule `CC(=O)OC(C)C1(C)CC(C)C23CCC(CC12)C3` (stereo not drawn), in assay [1] (Table 21), the pIC50 is 4.26 and the “Inhibition(%)” value is on record as 34%.

Regarding `CC(=O)C1(C)CC(C)C23CCC(CC12)C3` (stereo not drawn), in assay [1] (Table 21), the negative-log IC50 (pIC50) is 4.22 and the “Inhibition(%)” value is reported as 26%.

For `CC(=O)[C@@]1(C)C(C)[C@H](C)[C@@]23CC[C@H](CC12)C3` (stereo partly drawn), in assay [1] (Table 21), the “Inhibition(%)” value was 27%.

Take `CC1C(C)C23CCC(CC2C1(C)C=O)C3` (stereo not drawn): in assay [1] (Table 21), the pIC50 was 3.57 and the “Inhibition(%)” value came out at 28%.

`CC1=CCC(C=CC(C)C(C)O)C1(C)C` (stereo not drawn): in assay [2], the pIC50 was 4.12 and the “Inhibition(%)” value worked out at 33%.

Turning to `CC1=CCC2C(C1)C1CC2C2(C1)OC2C` (stereo not drawn), in assay [2], the pIC50 was 3.55 and the “Inhibition(%)” value was 45%.

Regarding `CC1(CO)CC1CC1CC2CC2(C)C1(C)C` (stereo not drawn), in assay [2], the negative logarithm of the IC50 (pIC50) is 4.67 and the “Inhibition(%)” value is recorded as 34%.

With `CC(=O)OCC1(C)C(C)C(C)C23CCC(CC12)C3` (stereo not drawn), in assay [1] (Table 21), the pIC50 was 4.22 and the “Inhibition(%)” value is 27%.

In the case of `CCC1=CCCC(C)(C)[C@@]12C=C[C@@H](C)O2`, in assay [2], the pIC50 was 3.90 and the “Inhibition(%)” value is recorded as 47%.

In the case of `C[C@H]1CCC[C@]2(CCCC[C@@H]2C)[C@@H]1O`, in assay [1] (Table 20, spiro analogues), the negative-log IC50 (pIC50) was 4.11 and the Emax amounted to 54%.

Consider `CC1CCC2(O1)C(C)(C)CCCC2(C)O` (stereo not drawn), for which, in assay [2], the pIC50 is 3.76 and the “Inhibition(%)” value is given as 40%.

`CC(=O)/C(C)=C/C1C(C)=CCCC1(C)C` (stereo not drawn): in assay [2], the pIC50 is 2.95 and the “Inhibition(%)” value is recorded as 58%.

For `CC(=O)OC1CC2CCC1(C)C2(C)C` (stereo not drawn), in assay [2], the negative-log IC50 (pIC50) is 3.18 and the “Inhibition(%)” value is given as 84%.

Consider `CC(=NO)C1(C)C(C)C(C)[C@]23CC[C@H](CC12)C3` (stereo partly drawn), for which the “Inhibition(%)” value in assay [1] (Table 21) is reported as 81%.

As to `CC(=NO)C1C(C)C(C)C23CCC(CC12)C3` (stereo not drawn), in assay [1] (Table 21), the negative logarithm of the IC50 (pIC50) is 4.12 and the Emax amounted to 19%.

As for `CC1CC(C)(C=NO)C2C[C@H]3CC[C@]12C3` (stereo partly drawn), in assay [1] (Table 21), the “Inhibition(%)” value was found to be 38%.

“2,4,8-trimethylspiro[5.5]undec-3-en-11-ol; 2,9,11-trimethylspiro[5.5]undec-9-en-5-ol”: in assay [1] (Table 20, spiro analogues), the negative logarithm of the IC50 (pIC50) was 3.93 and the “Inhibition(%)” value is on record as 70%.

“3,10,10-trimethylspiro[5.5]undec-3-en-11-ol; 4,10,10-trimethylspiro[5.5]undec-3-en-11-ol”: in assay [1] (Table 20, spiro analogues), the negative logarithm of the IC50 (pIC50) was under 3.22 and the “Inhibition(%)” value stood at 121%.

Consider “4,10,10,11-tetramethylspiro[5.5]undec-2-en-11-ol; 5,10,10,11-tetramethylspiro[5.5]undec-3-en-11-ol”, for which, in assay [1] (Table 20, spiro analogues), the pIC50 is 4.33 and the “Inhibition(%)” value is 94%.

In the case of `CC(=O)OC(C1CCCCC1C)C(C)(C)C` (racemic) [(1RS)-2,2-dimethyl-1-[(1SR,2SR)-2-methylcyclohexyl]propyl acetate], the “Inhibition(%)” value in assay [1] (Table 20, spiro analogues) was found to be 86%.

For the molecule `C=C1C(C)(C)CCCC12CC1(C)OC1(C)C2` (stereo not drawn) [1,1′,1′,5-tetramethyl-2′-methylidenespiro[6-oxabicyclo[3.1.0]hexane-3,3′-cyclohexane]], in assay [1] (Table 20, spiro analogues), the pIC50 was 4.12 and the Emax came out at 37%.

As to `CC1C=CCC(C)C1C(O)C(C)(C)C` (stereo not drawn) [1-(2,6-dimethylcyclohex-3-en-1-yl)-2,2-dimethylpropan-1-ol], in assay [1] (Table 20, spiro analogues), the negative-log IC50 (pIC50) was 3.49 and the Emax came to 31%.

`C=CCC1(OC)C(C)CCCC1C` (stereo not drawn) [1-methoxy-2,6-dimethyl-1-prop-2-enylcyclohexane]: in assay [1] (Table 20, spiro analogues), the negative logarithm of the IC50 (pIC50) was 4.00 and the Emax is 61%.

`C=C(C)CC1(CC(=C)C)CCC(C)(C)C1O` (stereo not drawn) [2,2-dimethyl-5,5-bis(2-methylprop-2-enyl)cyclopentan-1-ol]: in assay [1] (Table 20, spiro analogues), the pIC50 is 4.45 and the Emax came out at 119%.

Regarding `C=C(C)CC1(CC(=C)C)CCC(C)(C)C1=O` [2,2-dimethyl-5,5-bis(2-methylprop-2-enyl)cyclopentan-1-one], in assay [1] (Table 20, spiro analogues), the pIC50 was 4.29 and the Emax was found to be 82%.

As for `C=C(C)CC1(CC(=C)C)CCCC(C)(C)C1O` (stereo not drawn) [2,2-dimethyl-6,6-bis(2-methylprop-2-enyl)cyclohexan-1-ol], in assay [1] (Table 20, spiro analogues), the pIC50 is 3.90 and the Emax amounted to 110%.

Consider `CC1=C(C)CC2(CCC(C)(C)C2=O)C1` [2,3,8,8-tetramethylspiro[4.4]non-2-en-9-one], for which, in assay [1] (Table 20, spiro analogues), the pIC50 is 3.70 and the Emax came out at 10%.

For the molecule `CC1CC2(CCCC(C)(C)C2O)CC1C` (stereo not drawn) [2,3,9,9-tetramethylspiro[4.5]decan-10-ol], in assay [1] (Table 20, spiro analogues), the pIC50 was 3.92 and the Emax was found to be 12%.

With `CC1=CC(C)C2(CCCC(C)(C)C2O)C1` (stereo not drawn) [2,4,9,9-tetramethylspiro[4.5]dec-2-en-10-ol], in assay [1] (Table 20, spiro analogues), the negative logarithm of the IC50 (pIC50) is 4.09 and the Emax came out at 22%.

Regarding `CC1=CC(C)C2(CCCC(C)(C)C2=O)C1` (stereo not drawn) [2,4,9,9-tetramethylspiro[4.5]dec-2-en-10-one], in assay [1] (Table 20, spiro analogues), the negative logarithm of the IC50 (pIC50) is 3.96 and the Emax was 63%.

As for `C=CCC1(C(C)C=C)CCCC(C)(C)C1=O` (stereo not drawn) [2-but-3-en-2-yl-6,6-dimethyl-2-prop-2-enylcyclohexan-1-one], in assay [1] (Table 20, spiro analogues), the negative logarithm of the IC50 (pIC50) was 4.12 and the Emax was 115%.

In the case of `CC1=CCC2(CCCCC2O)C(C(C)C)C1` (stereo not drawn) [3-methyl-5-propan-2-ylspiro[5.5]undec-2-en-11-ol], in assay [1] (Table 20, spiro analogues), the negative-log IC50 (pIC50) is 3.44 and the Emax was determined as 144%.

Turning to `CC1C=CCC12CCCC(C)(C)C2=O` (stereo not drawn) [4,9,9-trimethylspiro[4.5]dec-2-en-10-one], in assay [1] (Table 20, spiro analogues), the negative logarithm of the IC50 (pIC50) is 3.57 and the Emax was found to be 102%.

For `COC1C(C)(C)CCC12CCCC2` (stereo not drawn) [4-methoxy-3,3-dimethylspiro[4.4]nonane], in assay [1] (Table 20, spiro analogues), the negative-log IC50 (pIC50) was 3.47 and the Emax came out at 105%.

For the molecule `CC1(C)CCCC2(CC=CC2)C1O` (stereo not drawn) [9,9-dimethylspiro[4.5]dec-2-en-10-ol], in assay [1] (Table 20, spiro analogues), the pIC50 was 4.36 and the Emax turned out to be 91%.

In the case of `CC1(C)CCCC2(CC=CC2)C1=O` [9,9-dimethylspiro[4.5]dec-2-en-10-one], in assay [1] (Table 20, spiro analogues), the pIC50 was 3.87 and the Emax came out at 23%.

With `COC1C(C)(C)CCC12CC=CC2` (stereo not drawn) [9-methoxy-8,8-dimethylspiro[4.4]non-2-ene], in assay [1] (Table 20, spiro analogues), the pIC50 is 3.62 and the Emax is 100%.

For the molecule `COC1C(C)(C)CCCC12CC=CC2` (stereo not drawn) [10-methoxy-9,9-dimethylspiro[4.5]dec-2-ene], in assay [1] (Table 20, spiro analogues), the negative-log IC50 (pIC50) is 3.92 and the Emax is 33%.

As to `CC1CCCCC12CCCCC2O` (stereo not drawn) [11-methylspiro[5.5]undecan-5-ol], in assay [1] (Table 20, spiro analogues), the negative logarithm of the IC50 (pIC50) is 4.16 and the Emax came out at 52%.

As for `CC(=O)OC1C(C)(C)CCCC12CC(C)(C)C(C)(C)C2` (stereo not drawn) [(2,2,3,3,9,9-hexamethylspiro[4.5]decan-10-yl) acetate], in assay [1] (Table 20, spiro analogues), the negative-log IC50 (pIC50) is 3.37 and the Emax is 39%.

In the case of `CC1=C(C)CC2(CCCC(C)(C)C2OC=O)C1` (stereo not drawn) [(2,3,9,9-tetramethylspiro[4.5]dec-2-en-10-yl) formate], in assay [1] (Table 20, spiro analogues), the negative logarithm of the IC50 (pIC50) is 4.59 and the Emax turned out to be 69%.

With `CC(=O)OC1C(C)(C)CCCC12CC(C)=CC2C` (stereo not drawn) [(2,4,9,9-tetramethylspiro[4.5]dec-2-en-10-yl) acetate], in assay [1] (Table 20, spiro analogues), the pIC50 is 4.46 and the Emax was 131%.

Molecule `C/C=C/C(=O)C1=C(C)CCCC1(C)C` [(2E)-1-(2,6,6-trimethyl-1-cyclohexen-1-yl)-2-buten-1-one] showed a pIC50 in assay [1] (butyric acid at EC80, Table 5) of 3.73.

With `CC(=O)OC1C(C)(C)CCCC12CC=C(C)CC2C` (stereo not drawn) [(3,5,10,10-tetramethylspiro[5.5]undec-2-en-11-yl) acetate], in assay [1] (Table 20, spiro analogues), the negative logarithm of the IC50 (pIC50) was 4.15 and the Emax turned out to be 104%.

For the molecule `CC(=O)OC1C(C)(C)CCCC12CC=CC2C` (stereo not drawn) [(4,9,9-trimethylspiro[4.5]dec-2-en-10-yl) acetate], in assay [1] (Table 20, spiro analogues), the negative-log IC50 (pIC50) was 4.31 and the Emax was found to be 106%.

Take `CC1CC=CCC12CCCC(C)(C)C2OC=O` (stereo not drawn) [(5,10,10-trimethylspiro[5.5]undec-2-en-11-yl) formate]: in assay [1] (Table 20, spiro analogues), the pIC50 was 4.35 and the Emax was determined as 129%.

As to `CC(=O)OC1C(C)(C)CCC12CC=CC2` (stereo not drawn) [(8,8-dimethylspiro[4.4]non-2-en-9-yl) acetate], in assay [1] (Table 20, spiro analogues), the negative-log IC50 (pIC50) was 3.31 and the Emax is 107%.

Regarding `CC(=O)OC1C(C)(C)CCCC12CC=CC2` (stereo not drawn) [(9,9-dimethylspiro[4.5]dec-2-en-10-yl) acetate], in assay [1] (Table 20, spiro analogues), the pIC50 is 4.04 and the Emax amounted to 32%.

For `CCOCOC1CCCCCCCCCCC1` [(ethoxymethoxy)cyclododecane], the pIC50 in assay [1] (butyric acid at EC80, Table 5) is 4.16.

As to `C[C@@H]1CCCCCCCCCCCCC(=O)C1` [(−)-(3R)-3-methyl-1-cyclopentadecanone], the pIC50 in assay [1] (butyric acid at EC80, Table 5) is 4.56.

With `COC1CCCCCCCCCCC1` [Methoxycyclododecane], the pIC50 in assay [1] (butyric acid at EC80, Table 5) was 4.08.

As for `CC(=O)OC(C1C(C)C=C(C)CC1C)C(C)(C)C` (stereo not drawn) [[2,2-dimethyl-1-(2,4,6-trimethylcyclohex-3-en-1-yl)propyl] acetate], in assay [1] (Table 20, spiro analogues), the pIC50 is 4.28 and the Emax was determined as 89%.

With `CC(=O)OC(C1C(C)CC(C)CC1C)C(C)(C)C` (stereo not drawn) [[2,2-dimethyl-1-(2,4,6-trimethylcyclohexyl)propyl] acetate], in assay [1] (Table 20, spiro analogues), the negative-log IC50 (pIC50) is 3.62 and the Emax was 101%.

On to “methyl 1-(3-methylbut-2-enyl)cyclohex-2-ene-1-carboxylate, methyl 1-(3-methylbut-2-enyl)cyclohex-3-ene-1-carboxylate, or mixtures thereof”, for which, in assay [1] (Table 20, spiro analogues), the pIC50 was 3.24 and the “Inhibition(%)” value came to 38%.
